Legend:
[1] = system: Tyrosine-protein kinase ABL1 (Homo sapiens), P00519 [E255K]; details: Compound concentration 1000.0 nM
[2] = target: Activin receptor type-2B (Homo sapiens) (UniProt Q13705); details: Compound concentration 1000.0 nM
[3] = target: Mitogen-activated protein kinase kinase kinase 5 (Homo sapiens) (UniProt Q99683); details: Compound concentration 1000.0 nM
[4] = target: Aurora kinase B (Homo sapiens) (UniProt Q96GD4); details: Compound concentration 1000.0 nM
[5] = target: Cyclin-dependent kinase 3 (Homo sapiens) (UniProt Q00526); details: Compound concentration 1000.0 nM
[6] = target: Epithelial discoidin domain-containing receptor 1 (Homo sapiens) (UniProt Q08345); details: Compound concentration 1000.0 nM
[7] = system: Epidermal growth factor receptor (Homo sapiens), P00533 [L861Q]; details: Compound concentration 1000.0 nM
[8] = target: Ephrin type-B receptor 6 (Homo sapiens) (UniProt O15197); details: Compound concentration 1000.0 nM
[9] = target: Fibroblast growth factor receptor 4 (Homo sapiens) (UniProt P22455); details: Compound concentration 1000.0 nM
[10] = system: Receptor-type tyrosine-protein kinase FLT3 (Homo sapiens), P36888 [D835Y]; details: Compound concentration 1000.0 nM
[11] = target: Tyrosine-protein kinase Fyn (Homo sapiens) (UniProt P06241); details: Compound concentration 1000.0 nM
[12] = target: Homeodomain-interacting protein kinase 4 (Homo sapiens) (UniProt Q8NE63); details: Compound concentration 1000.0 nM
[13] = target: Mast/stem cell growth factor receptor Kit (Homo sapiens) (UniProt P10721); details: Compound concentration 1000.0 nM
[14] = target: LIM domain kinase 2 (Homo sapiens) (UniProt P53671); details: Compound concentration 1000.0 nM
[15] = target: MAP kinase-activated protein kinase 2 (Homo sapiens) (UniProt P49137); details: Compound concentration 1000.0 nM
[16] = target: Dual specificity mitogen-activated protein kinase kinase 5 (Homo sapiens) (UniProt Q13163); details: Compound concentration 1000.0 nM
[17] = target: Maternal embryonic leucine zipper kinase (Homo sapiens) (UniProt Q14680); details: Compound concentration 1000.0 nM
[18] = target: Myosin light chain kinase (Homo sapiens) (UniProt Q32MK0); details: Compound concentration 1000.0 nM
[19] = target: Mitogen-activated protein kinase kinase kinase 9 (Homo sapiens) (UniProt P80192); details: Compound concentration 1000.0 nM
[20] = target: Serine/threonine-protein kinase 4 (Homo sapiens) (UniProt Q13043); details: Compound concentration 1000.0 nM
[21] = target: Serine/threonine-protein kinase 26 (Homo sapiens) (UniProt Q9P289); details: Compound concentration 1000.0 nM
[22] = target: Serine/threonine-protein kinase 38-like (Homo sapiens) (UniProt Q9Y2H1); details: Compound concentration 1000.0 nM
[23] = target: Serine/threonine-protein kinase PAK 1 (Homo sapiens) (UniProt Q13153); details: Compound concentration 1000.0 nM
[24] = target: Cyclin-dependent kinase 16 (Homo sapiens) (UniProt Q00536); details: Compound concentration 1000.0 nM
[25] = system: Phosphatidylinositol 4,5-bisphosphate 3-kinase catalytic subunit alpha isoform (Homo sapiens), P42336 [E545A]; details: Compound concentration 1000.0 nM
[26] = system: Phosphatidylinositol 4,5-bisphosphate 3-kinase catalytic subunit alpha isoform (Homo sapiens), P42336 [E545K]; details: Compound concentration 1000.0 nM
[27] = system: Phosphatidylinositol 4,5-bisphosphate 3-kinase catalytic subunit alpha isoform (Homo sapiens), P42336 [Q546K]; details: Compound concentration 1000.0 nM
[28] = target: cAMP-dependent protein kinase catalytic subunit beta (Homo sapiens) (UniProt P22694); details: Compound concentration 1000.0 nM
[29] = target: Protein kinase C eta type (Homo sapiens) (UniProt P24723); details: Compound concentration 1000.0 nM
[30] = target: Serine/threonine-protein kinase D1 (Homo sapiens) (UniProt Q15139); details: Compound concentration 1000.0 nM
[31] = target: Serine/threonine-protein kinase D3 (Homo sapiens) (UniProt O94806); details: Compound concentration 1000.0 nM
[32] = target: cGMP-dependent protein kinase 1 (Homo sapiens) (UniProt Q13976); details: Compound concentration 1000.0 nM
[33] = target: cAMP-dependent protein kinase catalytic subunit PRKX (Homo sapiens) (UniProt P51817); details: Compound concentration 1000.0 nM
[34] = target: RAF proto-oncogene serine/threonine-protein kinase (Homo sapiens) (UniProt P04049); details: Compound concentration 1000.0 nM
[35] = target: Serine/threonine-protein kinase RIO3 (Homo sapiens) (UniProt O14730); details: Compound concentration 1000.0 nM
[36] = target: Rho-associated protein kinase 2 (Homo sapiens) (UniProt O75116); details: Compound concentration 1000.0 nM
[37] = target: Ribosomal protein S6 kinase alpha-3 (Homo sapiens) (UniProt P51812); details: Compound concentration 1000.0 nM
[38] = target: Serine/threonine-protein kinase SIK1 (Homo sapiens) (UniProt P57059); details: Compound concentration 1000.0 nM
[39] = target: TGF-beta receptor type-1 (Homo sapiens) (UniProt P36897); details: Compound concentration 1000.0 nM
[40] = target: Wee1-like protein kinase 2 (Homo sapiens) (UniProt P0C1S8); details: Compound concentration 1000.0 nM
[41] = target: Mitogen-activated protein kinase kinase kinase 19 (Homo sapiens) (UniProt Q56UN5); details: Compound concentration 1000.0 nM
[42] = target: 5-hydroxytryptamine receptor 1A (Homo sapiens) (UniProt P08908); details: Compound concentration 10.0 uM
[43] = target: D(2) dopamine receptor (Homo sapiens) (UniProt P14416); details: Compound concentration 10.0 uM
[44] = target: Alpha-2A adrenergic receptor (Homo sapiens) (UniProt P08913); details: Compound concentration 10.0 uM
[45] = target: Muscarinic acetylcholine receptor M4 (Homo sapiens) (UniProt P08173); details: Compound concentration 10.0 uM

Sequence of Rho-associated protein kinase 2 (Homo sapiens) (O75116 whole entry, looked up): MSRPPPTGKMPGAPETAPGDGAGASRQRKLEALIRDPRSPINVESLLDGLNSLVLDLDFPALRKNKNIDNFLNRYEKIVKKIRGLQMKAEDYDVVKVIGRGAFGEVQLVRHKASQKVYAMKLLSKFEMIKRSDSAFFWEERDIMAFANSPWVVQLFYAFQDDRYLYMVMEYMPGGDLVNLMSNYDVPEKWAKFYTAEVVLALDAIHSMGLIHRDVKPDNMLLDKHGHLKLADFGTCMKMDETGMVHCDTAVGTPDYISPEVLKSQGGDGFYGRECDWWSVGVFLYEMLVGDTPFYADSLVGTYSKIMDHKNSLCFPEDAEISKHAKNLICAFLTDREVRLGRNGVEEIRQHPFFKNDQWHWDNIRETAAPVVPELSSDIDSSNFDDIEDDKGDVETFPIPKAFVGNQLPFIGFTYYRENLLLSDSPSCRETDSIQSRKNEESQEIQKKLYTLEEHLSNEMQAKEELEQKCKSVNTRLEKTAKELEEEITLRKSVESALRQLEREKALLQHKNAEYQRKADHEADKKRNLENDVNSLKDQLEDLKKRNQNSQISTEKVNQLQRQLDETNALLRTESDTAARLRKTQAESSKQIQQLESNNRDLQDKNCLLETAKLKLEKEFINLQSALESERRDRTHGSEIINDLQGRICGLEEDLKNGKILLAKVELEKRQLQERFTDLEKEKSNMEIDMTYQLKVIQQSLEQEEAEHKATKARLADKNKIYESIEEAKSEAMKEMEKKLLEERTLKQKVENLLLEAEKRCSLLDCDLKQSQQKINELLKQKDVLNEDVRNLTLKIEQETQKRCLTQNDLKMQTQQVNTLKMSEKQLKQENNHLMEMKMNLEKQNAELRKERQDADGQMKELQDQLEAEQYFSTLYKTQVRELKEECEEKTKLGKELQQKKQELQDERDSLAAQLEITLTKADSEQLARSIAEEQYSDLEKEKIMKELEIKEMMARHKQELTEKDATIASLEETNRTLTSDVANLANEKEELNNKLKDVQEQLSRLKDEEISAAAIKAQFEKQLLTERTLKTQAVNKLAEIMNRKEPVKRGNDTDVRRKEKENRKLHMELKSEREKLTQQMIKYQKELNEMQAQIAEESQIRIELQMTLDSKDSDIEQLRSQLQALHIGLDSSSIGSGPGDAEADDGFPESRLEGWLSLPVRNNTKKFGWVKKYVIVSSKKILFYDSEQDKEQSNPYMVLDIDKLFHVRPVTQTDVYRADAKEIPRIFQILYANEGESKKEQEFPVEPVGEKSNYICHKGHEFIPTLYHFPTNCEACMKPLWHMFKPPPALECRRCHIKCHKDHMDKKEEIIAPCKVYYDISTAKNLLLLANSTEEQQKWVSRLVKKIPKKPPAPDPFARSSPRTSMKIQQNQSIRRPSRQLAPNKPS
Sequence of Epithelial discoidin domain-containing receptor 1 (Homo sapiens) (Q08345 whole entry, the tested form may be a part): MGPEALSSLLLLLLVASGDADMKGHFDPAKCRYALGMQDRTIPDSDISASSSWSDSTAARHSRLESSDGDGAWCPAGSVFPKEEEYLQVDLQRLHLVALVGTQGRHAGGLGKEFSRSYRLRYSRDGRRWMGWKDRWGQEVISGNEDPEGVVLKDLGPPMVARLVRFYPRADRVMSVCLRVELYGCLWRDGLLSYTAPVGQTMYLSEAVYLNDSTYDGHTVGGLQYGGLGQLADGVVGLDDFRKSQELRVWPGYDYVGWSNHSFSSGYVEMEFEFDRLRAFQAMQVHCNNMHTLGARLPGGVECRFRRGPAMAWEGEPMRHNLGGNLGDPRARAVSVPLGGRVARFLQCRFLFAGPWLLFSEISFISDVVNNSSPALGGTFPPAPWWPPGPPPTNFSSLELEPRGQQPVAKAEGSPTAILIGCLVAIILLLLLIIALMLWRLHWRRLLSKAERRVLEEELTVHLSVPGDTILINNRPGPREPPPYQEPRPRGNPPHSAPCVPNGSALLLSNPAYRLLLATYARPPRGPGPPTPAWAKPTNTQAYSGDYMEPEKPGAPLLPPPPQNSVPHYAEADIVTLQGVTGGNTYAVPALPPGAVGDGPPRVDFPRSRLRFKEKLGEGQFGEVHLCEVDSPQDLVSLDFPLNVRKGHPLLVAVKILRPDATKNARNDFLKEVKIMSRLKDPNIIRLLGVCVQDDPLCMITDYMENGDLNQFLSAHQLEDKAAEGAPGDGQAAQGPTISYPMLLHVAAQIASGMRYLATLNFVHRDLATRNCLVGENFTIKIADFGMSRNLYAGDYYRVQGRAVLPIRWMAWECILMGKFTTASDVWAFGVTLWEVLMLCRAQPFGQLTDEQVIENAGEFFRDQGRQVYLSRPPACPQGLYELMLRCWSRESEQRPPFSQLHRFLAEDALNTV
Sequence of Serine/threonine-protein kinase 26 (Homo sapiens) (Q9P289 2-416 limits assumed): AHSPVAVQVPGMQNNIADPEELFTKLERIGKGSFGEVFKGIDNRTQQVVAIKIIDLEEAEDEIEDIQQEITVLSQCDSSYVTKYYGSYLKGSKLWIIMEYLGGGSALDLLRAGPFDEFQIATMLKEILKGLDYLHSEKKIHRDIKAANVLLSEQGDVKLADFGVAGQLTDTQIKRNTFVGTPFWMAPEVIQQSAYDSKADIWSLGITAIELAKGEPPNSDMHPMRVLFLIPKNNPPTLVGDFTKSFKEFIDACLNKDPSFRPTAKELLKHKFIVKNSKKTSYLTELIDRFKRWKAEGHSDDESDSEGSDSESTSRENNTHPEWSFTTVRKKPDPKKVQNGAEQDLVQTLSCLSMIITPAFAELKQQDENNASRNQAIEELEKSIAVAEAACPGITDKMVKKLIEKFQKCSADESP
Sequence of Serine/threonine-protein kinase D1 (Homo sapiens) (Q15139 whole entry): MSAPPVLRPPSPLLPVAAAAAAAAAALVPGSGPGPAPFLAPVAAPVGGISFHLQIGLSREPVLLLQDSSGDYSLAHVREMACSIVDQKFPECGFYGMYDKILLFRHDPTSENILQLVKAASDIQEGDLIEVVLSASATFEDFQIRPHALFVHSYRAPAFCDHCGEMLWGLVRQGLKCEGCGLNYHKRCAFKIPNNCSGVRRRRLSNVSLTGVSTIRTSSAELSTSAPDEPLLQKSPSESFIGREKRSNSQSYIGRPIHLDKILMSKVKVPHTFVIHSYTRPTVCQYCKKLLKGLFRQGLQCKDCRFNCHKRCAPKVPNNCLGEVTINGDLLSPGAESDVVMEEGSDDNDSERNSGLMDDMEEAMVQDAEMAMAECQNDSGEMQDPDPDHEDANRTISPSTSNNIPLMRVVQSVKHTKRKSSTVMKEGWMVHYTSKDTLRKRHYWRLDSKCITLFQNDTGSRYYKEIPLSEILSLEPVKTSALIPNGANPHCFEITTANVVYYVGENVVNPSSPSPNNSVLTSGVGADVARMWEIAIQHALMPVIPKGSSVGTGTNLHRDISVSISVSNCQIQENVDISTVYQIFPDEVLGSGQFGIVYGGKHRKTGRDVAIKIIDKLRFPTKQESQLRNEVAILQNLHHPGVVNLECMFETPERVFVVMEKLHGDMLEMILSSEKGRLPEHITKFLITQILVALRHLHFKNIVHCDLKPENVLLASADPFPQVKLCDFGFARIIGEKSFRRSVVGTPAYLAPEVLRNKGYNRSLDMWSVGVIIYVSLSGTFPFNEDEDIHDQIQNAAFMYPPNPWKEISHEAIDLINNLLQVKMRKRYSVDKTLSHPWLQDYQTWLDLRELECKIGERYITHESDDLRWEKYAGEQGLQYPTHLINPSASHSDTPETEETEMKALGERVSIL
Sequence of Cyclin-dependent kinase 16 (Homo sapiens) (Q00536 whole entry, canonical isoform): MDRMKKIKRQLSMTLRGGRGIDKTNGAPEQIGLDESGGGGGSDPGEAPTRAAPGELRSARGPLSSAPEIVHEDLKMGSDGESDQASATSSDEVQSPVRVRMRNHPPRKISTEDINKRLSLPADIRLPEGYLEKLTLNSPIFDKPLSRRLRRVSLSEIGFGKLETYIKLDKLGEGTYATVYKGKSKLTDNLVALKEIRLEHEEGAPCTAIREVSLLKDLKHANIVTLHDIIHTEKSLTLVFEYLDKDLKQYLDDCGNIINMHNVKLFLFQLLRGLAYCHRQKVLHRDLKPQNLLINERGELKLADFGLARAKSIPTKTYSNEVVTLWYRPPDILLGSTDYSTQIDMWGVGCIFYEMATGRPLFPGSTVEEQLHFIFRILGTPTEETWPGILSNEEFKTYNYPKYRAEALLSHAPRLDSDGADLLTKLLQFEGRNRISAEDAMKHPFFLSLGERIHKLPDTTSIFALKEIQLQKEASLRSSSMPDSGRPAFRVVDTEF
Sequence of Myosin light chain kinase (Homo sapiens) (Q32MK0 whole entry): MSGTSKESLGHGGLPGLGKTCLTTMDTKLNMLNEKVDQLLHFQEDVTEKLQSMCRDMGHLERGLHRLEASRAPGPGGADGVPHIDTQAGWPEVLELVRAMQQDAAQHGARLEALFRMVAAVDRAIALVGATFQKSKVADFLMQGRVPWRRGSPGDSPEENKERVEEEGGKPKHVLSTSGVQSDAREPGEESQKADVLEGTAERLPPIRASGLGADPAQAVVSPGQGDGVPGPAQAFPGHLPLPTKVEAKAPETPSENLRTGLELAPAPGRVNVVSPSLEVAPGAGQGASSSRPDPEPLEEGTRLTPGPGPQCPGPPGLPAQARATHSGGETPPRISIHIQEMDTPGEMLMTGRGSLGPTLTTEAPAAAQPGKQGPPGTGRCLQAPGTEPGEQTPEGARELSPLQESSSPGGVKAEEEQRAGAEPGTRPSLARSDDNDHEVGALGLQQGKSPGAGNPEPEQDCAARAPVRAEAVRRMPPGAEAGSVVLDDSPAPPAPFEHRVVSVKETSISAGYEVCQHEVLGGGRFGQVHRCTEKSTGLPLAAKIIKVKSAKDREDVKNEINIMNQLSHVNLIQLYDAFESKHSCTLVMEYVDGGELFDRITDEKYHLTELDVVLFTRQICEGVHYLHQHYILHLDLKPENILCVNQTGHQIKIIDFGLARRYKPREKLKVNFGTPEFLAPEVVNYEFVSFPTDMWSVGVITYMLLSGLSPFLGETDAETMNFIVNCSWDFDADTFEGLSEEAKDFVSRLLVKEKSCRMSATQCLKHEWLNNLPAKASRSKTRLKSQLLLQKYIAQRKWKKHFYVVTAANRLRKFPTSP

COc1cc(-c2cn([C@H]3CCc4ccccc4N(CC(F)(F)F)C3=O)nn2)ccc1-n1ccc(C)n1
inactive: residual activity [1] 96% | residual activity [2] 100% | residual activity [3] 100% | residual activity [4] 89% | residual activity [5] 100% | residual activity [6] 100% | residual activity [7] 100% | residual activity [8] 100% | residual activity [9] 100% | residual activity [10] 92% | residual activity [11] 94% | residual activity [12] 100% | residual activity [13] 96% | residual activity [14] 100% | residual activity [15] 90% | residual activity [16] 74% | residual activity [17] 96% | residual activity [18] 100% | residual activity [19] 91% | residual activity [20] 100% | residual activity [21] 83% | residual activity [22] 75% | residual activity [23] 100% | residual activity [24] 81% | residual activity [25] 71% | residual activity [26] 84% | residual activity [27] 97% | residual activity [28] 81% | residual activity [29] 73% | residual activity [30] 100% | residual activity [31] 100% | residual activity [32] 100% | residual activity [33] 95% | residual activity [34] 98% | residual activity [35] 100% | residual activity [36] 100% | residual activity [37] 97% | residual activity [38] 100% | residual activity [39] 100% | residual activity [40] 100% | residual activity [41] 95% | inhibition [42] 1.18% | inhibition [43] 7.85% | inhibition [44] 22.2% | inhibition [45] 6.94%

COc1cc(-c2cn([C@H]3CCc4c(F)cccc4N(CC(F)(F)F)C3=O)nn2)ccc1-n1cnc(C)c1
inactive: residual activity [1] 100% | residual activity [2] 100% | residual activity [3] 100% | residual activity [4] 100% | residual activity [5] 100% | residual activity [6] 100% | residual activity [7] 100% | residual activity [8] 100% | residual activity [9] 100% | residual activity [10] 86% | residual activity [11] 100% | residual activity [12] 100% | residual activity [13] 100% | residual activity [14] 100% | residual activity [15] 100% | residual activity [16] 58% | residual activity [17] 100% | residual activity [18] 92% | residual activity [19] 100% | residual activity [20] 100% | residual activity [21] 90% | residual activity [22] 78% | residual activity [23] 93% | residual activity [24] 82% | residual activity [25] 100% | residual activity [26] 70% | residual activity [27] 90% | residual activity [28] 95% | residual activity [29] 100% | residual activity [30] 100% | residual activity [31] 100% | residual activity [32] 100% | residual activity [33] 100% | residual activity [34] 100% | residual activity [35] 100% | residual activity [36] 100% | residual activity [37] 100% | residual activity [38] 100% | residual activity [39] 100% | residual activity [40] 100% | residual activity [41] 100% | inhibition [42] 19.4% | inhibition [43] 31.2% | inhibition [44] 35% | inhibition [45] 26.2%

From ChEMBL document CHEMBL4507289, “Data for DCP probe GSM1” (2021)
